Literature values as cited in patent US20090180950A1, “Polychromatic, diversely-sized particles for angiography” (The Trustees of Columbia University in the City of New York, priority 2006, published 2009).

System: plasma protein
Details: fluorescein

O=C1OC2(c3ccc(O)cc3Oc3cc(O)ccc32)c2ccccc21 [fluorescein, Sodium fluorescein]
bound to plasma protein (fraction bound): 70-80% | unbound (free) fraction (fraction not bound to plasma protein): 20-30%
